Ends that are not written are not given here.

These results are taken from patent publication US20240194290A1, “HIDDEN ANTIBIOTICS IN THE HUMAN PROTEOME” (THE TRUSTEES OF THE UNIVERSITY OF PENNSYLVANIA, priority 2021, published 2024).

The subject of assay [1] is A. baumannii ATCC19606. The experiment in a line: Outer membrane permeabilization (NPN uptake) assay. The assay is classed as cell-based, Acinetobacter baumannii. The following applies: peptides at MIC, compared to untreated control and polymyxin B. As to the method:
FIG. 3. Synergy, resistance development and mechanism of action studies of encrypted peptides. […] (FIG. 3B) Evolution of resistance by A. baumannii to encrypted peptides derived from the CUB domain (red) or polymyxin B (gray) after 30 days of serial passaging in liquid nutrient broth. Peptides and antibiotics were used at sub-inhibitory concentrations. Cells were passaged every 48 h. […] (FIG. 3D) Cytoplasmic membrane depolarization effects of the encrypted peptides against A. baumannii. (FIG. 3E) NPN assays showing the effect of encrypted peptides derived from the CUB domain and natriuretic peptide on permeabilization of the outer membrane of A. baumannii.
In order to investigate the mode of action of encrypted peptides against bacterial cells, assays were performed to study their effects on the bacterial membrane. First, the ability of encrypted peptides to disrupt and depolarize the bacterial cytoplasmic membrane was assessed […]. 3,3′-dipropylthiadicarbocyanine iodide [DiSC3(5)] was used, a potentiometric fluorophore that accumulates and aggregates in the cytoplasmic membrane, quenching its fluorescence. Upon imbalances of the cytoplasmic membrane transmembrane potential, the fluorophore migrates to the cytoplasm or the outer environment, generating fluorescence. […]
Methods: Membrane depolarization assays. The cytoplasmic membrane depolarization activity of the peptides was determined by measurements of fluorescence of the membrane potential-sensitive dye, DiSC3(5). […] Thereafter, the cells (100 μL) were incubated for 15 min with 20 nmol L^−1 of DiSC3(5) until a stable reduction of fluorescence was achieved, indicating the incorporation of the dye into the bacterial membrane. Membrane depolarization was then monitored by observing the change in the fluorescence emission intensity of the membrane potential-sensitive dye, DiSC3(5) (λex=622 nm, λem=670 nm), after the addition of peptides (100 μL solution at MIC values). […] The membrane permeability of the peptides was determined by using the N-phenyl-1-napthylamine (NPN) uptake assay. […]

Assay [2] deals with A. baumannii ATCC19606. Kind of assay: Skin abscess infection mouse model. Conditions: for anti-infective activity (FIG. 4B): 25 μmol L^−1, A. baumannii ATCC19606; for reduction of bacterial load / bacterial counts: mice, single dose 25 μmol L^−1 to infected area, A. baumannii. Format: in vivo, Acinetobacter baumannii. The text has this:
(§1) FIG. 4. Anti-infective activity and synergistic interactions of encrypted peptides in vivo. (FIG. 4A) Schematic of the skin abscess mouse model used to assess the anti-infective activity of selected encrypted peptides from plasma proteins. […] (FIG. 4C) Mouse weight was monitored throughout the experiment (2 days) to rule out potential toxic effects of the encrypted peptides. (FIG. 4D) Schematic of the neutropenic thigh infection mouse model used to assess the anti-infective activity of selected encrypted peptides from plasma proteins. […] (FIG. 4F) Mouse weight was monitored throughout the experiment (8 days) to rule out potential toxic effects of the encrypted peptides.
(§2) To test whether the peptides retain their antimicrobial activity in a complex living system, their properties in two mouse models were assessed. […] Since these peptides are mostly found in plasma, a relevant skin abscess mouse model was used to test their anti-infective activity (FIG. 4A). Mice were infected with bacterial loads of 10^5 and 10^6 cells in 20 μL of the clinically relevant Gram-negative pathogens P. aeruginosa and A. baumannii, respectively (FIG. 4B). […] In order to validate the synergistic effects obtained in vitro (FIG. 3D and FIG. 9), infected mice were treated with combinations of encrypted peptides (FIG. 4B). […] No damage or deleterious effects exerted by the peptides were detected in the mice in any of our experiments.
(§3) Methods: Skin abscess infection mouse model. A. baumannii ATCC19606 and P. aeruginosa strain PAO1 were used to infect the murine skin. Briefly, bacteria were grown in tryptic soy broth (TSB) medium. Subsequently, cells were washed twice with sterile PBS (pH 7.4, 13,000 rpm for 1 min), and resuspended to a final concentration of 1×10^5 and 1×10^6 CFU/20 μL for A. baumannii and P. aeruginosa, respectively. Female CD-1 mice (six-weeks old) were anesthetized with isoflurane and had their backs shaved and a superficial linear skin abrasion was made with a needle in order to damage the stratum corneum and upper-layer of the epidermis. An aliquot of 20 μL containing the bacterial load in PBS was inoculated over each defined area containing the scratch with a pipette tip. […] Animals were euthanized and the area of scarified skin was excised two- and four-days post-infection, homogenized using a bead beater for 20 minutes (25 Hz), and 10-fold serially diluted for CFU quantification. […] Prior to each injection, mice were anesthetized with isoflurane and monitored (respiratory rate and pedal reflexes). Next, we monitored the formation of the abscess and euthanized the mice. The infected area was excised three-days post-infection, homogenized using a bead beater for 20 min (25 Hz), and 10-fold serially diluted for CFU quantification. […]

For a further assay, the system named is P. aeruginosa PAO1. The experiment in a line: Skin abscess infection mouse model. Format: in vivo, Pseudomonas aeruginosa. The following applies: for anti-infective activity (FIG. 4B): 25 μmol L^−1, P. aeruginosa PAO1; for reduction of bacterial load / bacterial counts: mice, single dose 25 μmol L^−1 to infected area, P. aeruginosa.
From the text: as §1, §2, §3

In the case of SKEMFPRSFIKLLRSKVSRFLRPYK [SCUB1-SKE25], the “outer membrane permeabilization (NPN fluorescence)” value in the assay on A. baumannii ATCC19606 [1] is reported as “increased fluorescence”. For the same sequence, in the assay on A. baumannii ATCC19606 [2], the “anti-infective activity (FIG. 4B)” value is on record as “inhibitory activity” and the “reduction of bacterial load / bacterial counts” value is recorded as 3 orders of magnitude. Further, in the assay on P. aeruginosa PAO1, the “anti-infective activity (FIG. 4B)” value is reported as “inhibitory activity” and the “reduction of bacterial load / bacterial counts” value is on record as 3 orders of magnitude.

Regarding MLPKSFIKLLRSKVSSFLRPYK [SCUB3-MLP22], in the assay with A. baumannii ATCC19606 [1], the “outer membrane permeabilization (NPN fluorescence)” value is on record as “increased fluorescence”. In the assay on A. baumannii ATCC19606 [2], the “anti-infective activity (FIG. 4B)” value is “inhibitory activity” and the “reduction of bacterial load / bacterial counts” value is on record as 3 orders of magnitude. In the assay with P. aeruginosa PAO1, the “anti-infective activity (FIG. 4B)” value is recorded as “inhibitory activity” and the “reduction of bacterial load / bacterial counts” value is given as 3 orders of magnitude.
